{"source": "PubChem BioAssay AID1963965", "about": "(Molecular Pharmacology Branch, DTP, NCI, 2024);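 further: spheroids exposed to compounds for seven days before viability read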;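 on viability, T/C: luminescence used as a proxy for viable cell amount; percent viability relative to DMSO vehicle control as 100%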", "test_system": "996289-038-R-J1-PDC spheroid viability", "test": "Anticancer human tumor 996289-038-R-J1-PDC patient-derived colon adenocarcinoma cell line growth inhibition [PI3K]", "details": "spheroids with HUVEC and MSC; for viability, T/C: stronger effect = lower value", "summary_of_the_method": "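High-throughput combination screen: PI3K inhibitors crossed with targeted small molecules on complex spheroids of tumor cells, HUVEC and MSCs at 37 degrees C, 5% CO2. Top concentration was at or near clinical Cmax (otherwise 10 microM), with half-log decrements.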", "key": {"[1]": {"details": "curve of first compound, second compound 0.0316 µM"}, "[2]": {"details": "curve of first compound, second compound 0.1 µM"}, "[3]": {"details": "curve of first compound, second compound 0.316 µM"}, "[4]": {"details": "curve of first compound, second compound 1 µM"}, "[5]": {"details": "second compound 0.0316 µM, first compound 0.0316 µM"}, "[6]": {"details": "second compound 0.0316 µM, first compound 0.1 µM"}, "[7]": {"details": "second compound 0.0316 µM, first compound 0.316 µM"}, "[8]": {"details": "second compound 0.0316 µM, first compound 1 µM"}, "[9]": {"details": "second compound 0.0316 µM, first compound 3.16 µM"}, "[10]": {"details": "second compound 0.0316 µM, first compound 10 µM"}, "[11]": {"details": "second compound 0.1 µM, first compound 0.0316 µM"}, "[12]": {"details": "second compound 0.1 µM, first compound 0.1 µM"}, "[13]": {"details": "second compound 0.1 µM, first compound 0.316 µM"}, "[14]": {"details": "second compound 0.1 µM, first compound 1 µM"}, "[15]": {"details": "second compound 0.1 µM, first compound 3.16 µM"}, "[16]": {"details": "second compound 0.1 µM, first compound 10 µM"}, "[17]": {"details": "second compound 0.316 µM, first compound 0.0316 µM"}, "[18]": {"details": "second compound 0.316 µM, first compound 0.1 µM"}, "[19]": {"details": "second compound 0.316 µM, first compound 0.316 µM"}, "[20]": {"details": "second compound 0.316 µM, first compound 1 µM"}, "[21]": {"details": "second compound 0.316 µM, first compound 3.16 µM"}, "[22]": {"details": "second compound 0.316 µM, first compound 10 µM"}, "[23]": {"details": "second compound 1 µM, first compound 0.0316 µM"}, "[24]": {"details": "second compound 1 µM, first compound 0.1 µM"}, "[25]": {"details": "second compound 1 µM, first compound 0.316 µM"}, "[26]": {"details": "second compound 1 µM, first compound 1 µM"}, "[27]": {"details": "second compound 1 µM, first compound 3.16 µM"}, "[28]": {"details": "second compound 1 µM, first compound 10 µM"}}, "data": [{"smiles": "C[C@@H](NC(=O)c1ncnc(N)c1Cl)c1ncc(C(=O)Nc2cc(C(F)(F)F)c(Cl)cn2)s1", "note": "+ Cc1nc(NC(=O)N2CCCC2C(N)=O)sc1-c1ccnc(C(C)(C)C(F)(F)F)c1", "values": [{"measurement": "IC50", "setting": "[1]", "value": "> 10", "unit": "µM"}, {"measurement": "IC50", "setting": "[2]", "value": "> 10", "unit": "µM"}, {"measurement": "IC50", "setting": "[3]", "value": "> 10", "unit": "µM"}, {"measurement": "IC50", "setting": "[4]", "value": "> 10", "unit": "µM"}, {"measurement": "IC50", "setting": "curve of first compound, second compound 3.16 µM", "value": "> 10", "unit": "µM"}, {"measurement": "IC50", "setting": "curve of first compound, second compound 10 µM", "value": "< 0.0316", "unit": "µM"}, {"measurement": "viability, T/C", "setting": "[5]", "value": 89.5, "unit": "%"}, {"measurement": "viability, T/C", "setting": "[6]", "value": 89.8, "unit": "%"}, {"measurement": "viability, T/C", "setting": "[7]", "value": 124, "unit": "%"}, {"measurement": "viability, T/C", "setting": "[8]", "value": 114, "unit": "%"}, {"measurement": "viability, T/C", "setting": "[9]", "value": 113, "unit": "%"}, {"measurement": "viability, T/C", "setting": "[10]", "value": 128, "unit": "%"}, {"measurement": "viability, T/C", "setting": "[11]", "value": 99.3, "unit": "%"}, {"measurement": "viability, T/C", "setting": "[12]", "value": 100, "unit": "%"}, {"measurement": "viability, T/C", "setting": "[13]", "value": 103, "unit": "%"}, {"measurement": "viability, T/C", "setting": "[14]", "value": 104, "unit": "%"}, {"measurement": "viability, T/C", "setting": "[15]", "value": 109, "unit": "%"}, {"measurement": "viability, T/C", "setting": "[16]", "value": 105, "unit": "%"}, {"measurement": "viability, T/C", "setting": "[17]", "value": 80.5, "unit": "%"}, {"measurement": "viability, T/C", "setting": "[18]", "value": 88.6, "unit": "%"}, {"measurement": "viability, T/C", "setting": "[19]", "value": 90.8, "unit": "%"}, {"measurement": "viability, T/C", "setting": "[20]", "value": 93.9, "unit": "%"}, {"measurement": "viability, T/C", "setting": "[21]", "value": 109, "unit": "%"}, {"measurement": "viability, T/C", "setting": "[22]", "value": 92.4, "unit": "%"}, {"measurement": "viability, T/C", "setting": "[23]", "value": 64.3, "unit": "%"}, {"measurement": "viability, T/C", "setting": "[24]", "value": 72.8, "unit": "%"}, {"measurement": "viability, T/C", "setting": "[25]", "value": 73.5, "unit": "%"}, {"measurement": "viability, T/C", "setting": "[26]", "value": 81.1, "unit": "%"}, {"measurement": "viability, T/C", "setting": "[27]", "value": 102, "unit": "%"}, {"measurement": "viability, T/C", "setting": "[28]", "value": 70.8, "unit": "%"}, {"measurement": "viability, T/C", "setting": "second compound 3.16 µM, first compound 0.0316 µM", "value": 62.1, "unit": "%"}, {"measurement": "viability, T/C", "setting": "second compound 3.16 µM, first compound 0.1 µM", "value": 68.3, "unit": "%"}, {"measurement": "viability, T/C", "setting": "second compound 3.16 µM, first compound 0.316 µM", "value": 60.3, "unit": "%"}, {"measurement": "viability, T/C", "setting": "second compound 3.16 µM, first compound 1 µM", "value": 67.7, "unit": "%"}, {"measurement": "viability, T/C", "setting": "second compound 3.16 µM, first compound 3.16 µM", "value": 68.7, "unit": "%"}, {"measurement": "viability, T/C", "setting": "second compound 3.16 µM, first compound 10 µM", "value": 54.3, "unit": "%"}, {"measurement": "viability, T/C", "setting": "second compound 10 µM, first compound 0.0316 µM", "value": 40.6, "unit": "%"}, {"measurement": "viability, T/C", "setting": "second compound 10 µM, first compound 0.1 µM", "value": 47.1, "unit": "%"}, {"measurement": "viability, T/C", "setting": "second compound 10 µM, first compound 0.316 µM", "value": 54.3, "unit": "%"}, {"measurement": "viability, T/C", "setting": "second compound 10 µM, first compound 1 µM", "value": 44.3, "unit": "%"}, {"measurement": "viability, T/C", "setting": "second compound 10 µM, first compound 3.16 µM", "value": 46.9, "unit": "%"}, {"measurement": "viability, T/C", "setting": "second compound 10 µM, first compound 10 µM", "value": 39.9, "unit": "%"}]}, {"smiles": "CC(C)NCC(C(=O)N1CCN(c2ncnc3c2C(C)CC3O)CC1)c1ccc(Cl)cc1", "note": "(stereo unspecified)", "values": [{"measurement": "viability, T/C", "setting": "compound 0.0316 µM", "value": "106% [middle of 4 runs]"}, {"measurement": "viability, T/C", "setting": "compound 0.1 µM", "value": "86.8% [middle of 4 runs]"}, {"measurement": "viability, T/C", "setting": "compound 0.316 µM", "value": "99.8% [middle of 4 runs]"}, {"measurement": "viability, T/C", "setting": "compound 1 µM", "value": "94.2% [middle of 4 runs]"}, {"measurement": "viability, T/C", "setting": "compound 3.16 µM", "value": "88% [middle of 4 runs]"}, {"measurement": "viability, T/C", "setting": "compound 10 µM", "value": "78.7% [middle of 4 runs]"}, {"measurement": "IC50", "setting": "curve of compound", "value": "> 10", "unit": "µM"}]}, {"smiles": "CC1(C)CCC(Nc2ncc(C(F)(F)F)c(-c3c[nH]c4c(P(C)(C)=O)c(C#N)ccc34)n2)CN1", "note": "(stereo unspecified) + CC(Nc1ccc2c(c1)OCCn1cc(N3C(=O)OCC3C(F)F)nc1-2)C(N)=O", "values": [{"measurement": "IC50", "setting": "curve of first compound, second compound 0.00316 µM", "value": 6.75, "unit": "µM"}, {"measurement": "IC50", "setting": "curve of first compound, second compound 0.01 µM", "value": 6.89, "unit": "µM"}, {"measurement": "IC50", "setting": "[1]", "value": 6.69, "unit": "µM"}, {"measurement": "IC50", "setting": "[2]", "value": 5.85, "unit": "µM"}, {"measurement": "IC50", "setting": "[3]", "value": 4.91, "unit": "µM"}, {"measurement": "IC50", "setting": "[4]", "value": 4.66, "unit": "µM"}, {"measurement": "viability, T/C", "setting": "second compound 0.00316 µM, first compound 0.0316 µM", "value": 111, "unit": "%"}, {"measurement": "viability, T/C", "setting": "second compound 0.00316 µM, first compound 0.1 µM", "value": 90.6, "unit": "%"}, {"measurement": "viability, T/C", "setting": "second compound 0.00316 µM, first compound 0.316 µM", "value": 81, "unit": "%"}, {"measurement": "viability, T/C", "setting": "second compound 0.00316 µM, first compound 1 µM", "value": 87.3, "unit": "%"}, {"measurement": "viability, T/C", "setting": "second compound 0.00316 µM, first compound 3.16 µM", "value": 97.1, "unit": "%"}, {"measurement": "viability, T/C", "setting": "second compound 0.00316 µM, first compound 10 µM", "value": 27.4, "unit": "%"}, {"measurement": "viability, T/C", "setting": "second compound 0.01 µM, first compound 0.0316 µM", "value": 110, "unit": "%"}, {"measurement": "viability, T/C", "setting": "second compound 0.01 µM, first compound 0.1 µM", "value": 93, "unit": "%"}, {"measurement": "viability, T/C", "setting": "second compound 0.01 µM, first compound 0.316 µM", "value": 81.7, "unit": "%"}, {"measurement": "viability, T/C", "setting": "second compound 0.01 µM, first compound 1 µM", "value": 94.1, "unit": "%"}, {"measurement": "viability, T/C", "setting": "second compound 0.01 µM, first compound 3.16 µM", "value": 89.7, "unit": "%"}, {"measurement": "viability, T/C", "setting": "second compound 0.01 µM, first compound 10 µM", "value": 31.1, "unit": "%"}, {"measurement": "viability, T/C", "setting": "[5]", "value": 99.3, "unit": "%"}, {"measurement": "viability, T/C", "setting": "[6]", "value": 83.6, "unit": "%"}, {"measurement": "viability, T/C", "setting": "[7]", "value": 85.5, "unit": "%"}, {"measurement": "viability, T/C", "setting": "[8]", "value": 81.9, "unit": "%"}, {"measurement": "viability, T/C", "setting": "[9]", "value": 88.5, "unit": "%"}, {"measurement": "viability, T/C", "setting": "[10]", "value": 29.7, "unit": "%"}, {"measurement": "viability, T/C", "setting": "[11]", "value": 89, "unit": "%"}, {"measurement": "viability, T/C", "setting": "[12]", "value": 76.3, "unit": "%"}, {"measurement": "viability, T/C", "setting": "[13]", "value": 81.2, "unit": "%"}, {"measurement": "viability, T/C", "setting": "[14]", "value": 82.2, "unit": "%"}, {"measurement": "viability, T/C", "setting": "[15]", "value": 81, "unit": "%"}, {"measurement": "viability, T/C", "setting": "[16]", "value": 22.9, "unit": "%"}, {"measurement": "viability, T/C", "setting": "[17]", "value": 73.9, "unit": "%"}, {"measurement": "viability, T/C", "setting": "[18]", "value": 72, "unit": "%"}, {"measurement": "viability, T/C", "setting": "[19]", "value": 76.6, "unit": "%"}, {"measurement": "viability, T/C", "setting": "[20]", "value": 65.8, "unit": "%"}, {"measurement": "viability, T/C", "setting": "[21]", "value": 69, "unit": "%"}, {"measurement": "viability, T/C", "setting": "[22]", "value": 19.9, "unit": "%"}, {"measurement": "viability, T/C", "setting": "[23]", "value": 58.8, "unit": "%"}, {"measurement": "viability, T/C", "setting": "[24]", "value": 73.8, "unit": "%"}, {"measurement": "viability, T/C", "setting": "[25]", "value": 63.7, "unit": "%"}, {"measurement": "viability, T/C", "setting": "[26]", "value": 63.3, "unit": "%"}, {"measurement": "viability, T/C", "setting": "[27]", "value": 66.8, "unit": "%"}, {"measurement": "viability, T/C", "setting": "[28]", "value": 19.9, "unit": "%"}]}]}
